Laboratory results from patent US20070191490A1, “Withacnistin compounds for treatment of cancer” (priority 2006, published 2007).

Legend:
phospho-Src = phospho-Src levels in A549 cells (Western blotting); type: cell-based, human; conditions: 10 μM, 4 hours
Description: (§1) Western blotting. Treated cell samples were lysed in 30 mM HEPES, pH 7.5, 10 mM NaCl, 5 mM MgCl2, 25 mM NaF, 1 mM EGTA, 1% Triton X-100, 10% glycerol, 2 mM sodium orthovanadate, 10 μg/ml aprotinin, 10μ/ml soybean trypsin inhibitor, 25 μg/ml leupeptin, 2 mM PMSF, and 6.4 mg/ml p-nitrophenylphosphate. Phospho-STAT3, phospho-AKT, phospho-Src, and phospho-p42/p44 MAPK antibodies were obtained from Cell Signaling Technologies (Cambridge, Mass., USA). Phospho-JNK and whole STAT3 antibodies were purchased from Santa Cruz Biotechnology (Santa Cruz, Calif., USA); phospho-JAK2 antibody came from Upstate Biotechnology (Lake Placid, N.Y., USA). Membranes were blocked in either 5% milk in phosphate-buffered saline (PBS), pH 7.4, containing 0.1% Tween-20 (PBS-T) or 1% BSA in tris-buffered saline (TBS), pH 7.5, containing 0.1% Tween-20 (TBS-T). Phospho-specific antibodies (excepting P-MAPK and P-JNK) were incubated in 1% BSA in TBS-T while all other antibodies were diluted in 5% milk in PBS-T for either 2 h at room temperature or overnight at 4° C. HRP-conjugated secondary antibodies (Jackson ImmunoResearch, West Grove, Pa., USA) were diluted in 5% milk in either PBS-T or TBS-T at 1:1000 dilution for 1 h at room temperature. […]
(§2) It was next determined whether withacnistin and the Cuc analogs are selective for the JAK2/STAT3 pathway over other signal transduction pathways. […]

phospho-JNK = phospho-JNK levels in A549 cells (Western blotting); type: cell-based, human; conditions: 10 μM, 4 hours
Description: as §1, §2

A549 cells [1] = test: Trypan blue exclusion assay (tumor cell death); type: cell-based, human; conditions: 10 μM, 24 h
Description: In vitro cellular proliferation and TUNEL assays. Subconfluent A549, MDA-MB-435, MDA-MB-453, MDAMB-468, v-Src transformed NIH 3T3 (v-Src/3T3), H-Ras transformed NIH 3T3 (H-Ras/3T3), and vector NIH 3T3 cells were grown in the presence of 10 μM cucurbitacin A, cucurbitacin I, withacnistin mixture, or DMSO vehicle control. After 24 hours, cells were harvested by trypsinization and counted via trypan blue exclusion assay to determine cellular viability. In all, 75,000-150,000 cells (depending on cell line) were then spun onto glass slides using a Cytospin 3 centrifuge (Thermo Shandon Inc., Pittsburgh, Pa., USA). […] TUNELpositive nuclei were counted and compared to DAPI-stained nuclei to determine the percent induction of apoptosis by the different cucurbitacin compounds. Statistical significance between control and treated tumors were evaluated by using Student's t-test.
(§3) The next objective was to determine whether the ability of the cucurbitacins and withacnistin to induce apoptosis is dependent on suppression of PJAK2 and/or P-STAT3 levels. To this end, A549 cells were treated with vehicle control, or cucurbitacins (10 μM), or the withacnistin mixture (10 μM) for 24 h, harvested the cells, and determined tumor cell death (trypan blue exclusion) and apoptosis (TUNEL) as described under Materials and methods.

A549 cells [2] = test: TUNEL apoptosis assay, A549; type: cell-based, human; conditions: for apoptosis (TUNEL): 10 μM, 24 h
Description: (§4) In vitro cellular proliferation and TUNEL assays. Subconfluent A549, MDA-MB-435, MDA-MB-453, MDAMB-468, v-Src transformed NIH 3T3 (v-Src/3T3), H-Ras transformed NIH 3T3 (H-Ras/3T3), and vector NIH 3T3 cells were grown in the presence of 10 μM cucurbitacin A, cucurbitacin I, withacnistin mixture, or DMSO vehicle control. After 24 hours, cells were harvested by trypsinization and counted via trypan blue exclusion assay to determine cellular viability. In all, 75,000-150,000 cells (depending on cell line) were then spun onto glass slides using a Cytospin 3 centrifuge (Thermo Shandon Inc., Pittsburgh, Pa., USA). After fixing cells to the slides with 4% paraformaldehyde in PBS, pH 7.5, for 1 h at room temperature, cells were labeled for apoptotic DNA strand breaks by TUNEL reaction using an in situ cell death detection kit (Roche Applied Science, Indianapolis, Ind., USA) according to the manufacturer's instructions, then mounted in Vectashield mounting medium (Vector Laboratories, Burlingame, Calif., USA) containing 4′,6-diamidino-2-phenylindole (DAPI) to counterstain DNA. Fluorescein-labeled DNA strand breaks (TUNEL-positive cells) were then visualized using a fluorescent microscope (Leica Microsystems Inc., Bannockburn, Ill., USA) and pictures taken with a digital camera (Diagnostic Instruments, Inc., Sterling Heights, Mich., USA). TUNELpositive nuclei were counted and compared to DAPI-stained nuclei to determine the percent induction of apoptosis by the different cucurbitacin compounds. Statistical significance between control and treated tumors were evaluated by using Student's t-test.
as §3, with “methods. […]” for “methods.”

Src kinase = Src kinase (Homo sapiens, UniProt P12931); conditions: Blaskovich et al. 2003; cited from earlier work
Sequence of Src kinase (P12931 whole entry): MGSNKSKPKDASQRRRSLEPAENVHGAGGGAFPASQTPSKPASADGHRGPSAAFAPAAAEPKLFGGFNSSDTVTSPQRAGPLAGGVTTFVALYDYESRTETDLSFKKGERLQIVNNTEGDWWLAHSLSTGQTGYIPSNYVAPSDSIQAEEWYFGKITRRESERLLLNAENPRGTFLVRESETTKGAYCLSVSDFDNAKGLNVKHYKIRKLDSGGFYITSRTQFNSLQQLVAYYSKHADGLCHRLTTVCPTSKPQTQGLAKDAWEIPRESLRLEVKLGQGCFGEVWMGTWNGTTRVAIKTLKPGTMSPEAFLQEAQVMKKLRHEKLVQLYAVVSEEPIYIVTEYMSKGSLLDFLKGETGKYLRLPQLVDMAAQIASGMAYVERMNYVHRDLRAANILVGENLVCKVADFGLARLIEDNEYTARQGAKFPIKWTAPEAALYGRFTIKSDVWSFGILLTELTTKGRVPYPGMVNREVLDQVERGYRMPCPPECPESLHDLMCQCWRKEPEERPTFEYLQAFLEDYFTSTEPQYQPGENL

MDA-MB-435 cells = test: TUNEL apoptosis assay, MDA-MB-435; type: cell-based, human; conditions: 10 μM withacnistin mixture, 24 hours
Description: as §4, with “Fluorescein-labeled DNA strand breaks (TUNEL-positive cells) were then visualized using a fluorescent microscope (Leica Microsystems Inc., Bannockburn, Ill., USA) and pictures taken with a digital camera (Diagnostic Instruments, Inc., Sterling Heights, Mich., USA).” left out, “t-test. […]” for “t-test.”

MDA-MB-453 cells = test: TUNEL apoptosis assay, MDA-MB-453; type: cell-based, human; conditions: 10 μM withacnistin mixture, 24 hours
Description: as §4, with “Fluorescein-labeled DNA strand breaks (TUNEL-positive cells) were then visualized using a fluorescent microscope (Leica Microsystems Inc., Bannockburn, Ill., USA) and pictures taken with a digital camera (Diagnostic Instruments, Inc., Sterling Heights, Mich., USA).” left out, “t-test. […]” for “t-test.”

v-Src/3T3 cells = test: TUNEL apoptosis assay, v-Src/3T3; type: cell-based, murine; conditions: 10 μM withacnistin mixture, 24 hours
Description: as §4, with “Fluorescein-labeled DNA strand breaks (TUNEL-positive cells) were then visualized using a fluorescent microscope (Leica Microsystems Inc., Bannockburn, Ill., USA) and pictures taken with a digital camera (Diagnostic Instruments, Inc., Sterling Heights, Mich., USA).” left out, “t-test. […]” for “t-test.”

H-Ras/3T3 cells = test: TUNEL apoptosis assay, H-Ras/3T3; type: cell-based, murine; conditions: 10 μM withacnistin mixture, 24 hours
Description: as §4, with “Fluorescein-labeled DNA strand breaks (TUNEL-positive cells) were then visualized using a fluorescent microscope (Leica Microsystems Inc., Bannockburn, Ill., USA) and pictures taken with a digital camera (Diagnostic Instruments, Inc., Sterling Heights, Mich., USA).” left out, “t-test. […]” for “t-test.”

vector/3T3 cells = test: TUNEL apoptosis assay, vector NIH 3T3; type: cell-based, murine; conditions: 10 μM withacnistin mixture, 24 hours
Description: as §4, with “Fluorescein-labeled DNA strand breaks (TUNEL-positive cells) were then visualized using a fluorescent microscope (Leica Microsystems Inc., Bannockburn, Ill., USA) and pictures taken with a digital camera (Diagnostic Instruments, Inc., Sterling Heights, Mich., USA).” left out, “t-test. […]” for “t-test.”

SOCS3 = SOCS3 levels in cancer cell lines; type: cell-based, human; conditions: A549 cells
Description: Activation of STAT3 occurs through its tyrosine phosphorylation. Inactivation of STAT3 can occur through several mechanisms including dephosphorylation by phosphotyrosine protein phosphatases as well as blocking STAT3 activation by SOCS3, which binds and prevents kinases from activating STAT3. To determine whether Wit also affects negative regulators of STAT3, its effects on SOCS3 were determined. To this end, A549 cells were first treated with Wit for various periods of time and its effects on both P-STAT3 and SOCS3 were determined. […] However, by 24 hours, Wit suppressed both P-STAT3 and total STAT3 levels (data not shown). […] It is important to note that WM had little effect on […] protein levels (FIGS. 11A and 11C).

phosphotyrosine-STAT3 = test: Inhibition of phosphotyrosine-STAT3 levels in tumor cell lines (Western blotting); type: cell-based, human; conditions: A549 cells, by 24 hours; data not shown

SMILES | phosphotyrosine levels of Src (phospho-Src) | phosphotyrosine levels of JNK1 (phospho-JNK) | tumor cell death (trypan blue exclusion) (A549 cells [1]) | apoptosis (TUNEL) (A549 cells [2]) | inhibition of Src kinase in vitro (Src kinase) | increase of percentage of apoptotic tumor cells compared to vehicle-treated control (A549 cells [2]; 10 μM withacnistin mixture, 24 hours) | increase of percentage of apoptotic cells compared to vehicle control (MDA-MB-435 cells) | increase of percentage of apoptotic cells compared to vehicle control (MDA-MB-453 cells) | apoptosis (TUNEL-positive cells) (v-Src/3T3 cells) | fold increase of apoptosis over control (v-Src/3T3 cells) | apoptosis (TUNEL-positive cells) (H-Ras/3T3 cells) | fold increase of apoptosis over control (H-Ras/3T3 cells) | apoptosis (TUNEL-positive cells) (vector/3T3 cells) | fold increase of apoptosis over control (vector/3T3 cells) | levels of SOCS3 (SOCS3) | onset of SOCS3 induction (SOCS3) | P-STAT3 levels (phosphotyrosine-STAT3)
CC(=O)OC(C)(C)/C=C/C(=O)[C@](C)(O)[C@H]1[C@H](O)C[C@@]2(C)[C@@H]3CC=C4[C@@H](C[C@H](O)C(=O)C4(C)C)[C@]3(CO)C(=O)C[C@]12C [Cuc A, cucurbitacin A] | little inhibitory activity | little inhibitory activity | 11% | 5% | – | – | – | – | – | – | – | – | – | – | – | – | –
CC(C)(O)/C=C/C(=O)[C@](C)(O)[C@H]1[C@H](O)C[C@@]2(C)[C@@H]3CC=C4[C@@H](C=C(O)C(=O)C4(C)C)[C@]3(C)C(=O)C[C@]12C [Cuc I, cucurbitacin I] | – | – | – | – | not inhibited | – | – | – | – | – | – | – | – | – | – | – | –
CC(=O)OC[C@]12CC[C@H]3[C@@H](C[C@H]4O[C@]45[C@@H](O)C=CC(=O)[C@]35C)[C@@H]1CC[C@@H]2[C@H](C)[C@H]1CC(C)=C(C)C(=O)O1 [withacnistin] | – | – | 60% | 28% | – | 27.4 fold | 25.9 fold | 4.7 fold | 39.2±7.3% | 50.2 fold | 7.3±4.7% | 12.5 fold | 7.3±3.9% | 4.2 fold | induced | detectable only after two hours | suppressed
